Patent publication US10358531B2, “Crosslinked polymer nano-assemblies and uses thereof” (University of Massachusetts, priority 2011, dated 2019)

How the values were obtained:
MCF-7 cells = test: Cell uptake of free Dox and Dox-loaded nanogels by confocal microscopy; assay type: cell-based; details: 20 μM Dox concentration, 3-4 h
Procedure: For further study, the cell uptake of both free Dox and Dox-loaded nanogels (20 μM Dox concentration) was monitored using confocal microscopy over time. Initial internalization of Dox was observed within 3 h for free Dox and NG3-Dox, but not until 4 h for NG1-Dox (FIG. 9c-g). […] This is presumably the reason that the two nanogels show similar toxicities.
Laser Scanning Confocal Microscopy: The laser confocal experiment was performed with MCF-7 cells. MCF-7 cells were cultured in T75 cell culture flask containing DMEM/F12 with 10% FBS supplement. The cells were seeded at 10,000 cells/100 μL in cover slip-bottomed Petri dishes and allowed to grow for 3 days at 37° C. in a 5% CO2 incubator. The cells in 2 mL of culture medium were treated with 200 μL of nanogels containing two dyes or doxorubicin and incubated at 37° C. for different time intervals before monitoring the cells by confocal microscopy.

[1] = DLS size of NG-CRRR nanogels, β-gal and complexes; estimated numbers per complex; assay type: physicochemical
From the text: Also evaluated were the size change and charge alteration of the nanogel surface due to the complexation event using DLS and zeta potential measurements respectively.

HeLa cells [2] = test: Intracellular delivery of DiI and FITC-β-gal by confocal microscopy; assay type: cell-based; details: without nanogel
Procedure: Intracellular delivery of DiI and β-gal was also tested. As the nanogels consist of biodegradable disulfide crosslinkers, the release of the complexed protein and encapsulated lipophilic molecule can be triggered upon exposure to glutathione (present at higher concentrations inside the cells (mM), compared to the extracellular concentration […]). To compare the release profile of these dual delivery systems, NG1-CRRR and NG2-CRRR containing DiI in its interior and complexed with FITC labeled β-gal, were added to HeLa cells with serum and without serum. In the case of cell internalization of both encapsulated DiI and FITC labeled protein, a yellow color would be observed due to the co-localization and overlay of both red and green fluorophores for DiI and FITC, respectively. If there is no internalization of the nanogel, no color could be observed.
Fluorescence distribution of DiI and FITC was observed over time by confocal fluorescence microscopy with simultaneous excitation of both dye molecules at 488 nm and 543 nm for FITC and DiI, respectively. As shown in FIGS. 33a and 33b, green and red emissions were observed when the cells were treated with the nanogel-protein complexes. […] The green fluorescence of the FITC (label for protein) and red fluorescence for DiI (encapsulated small molecule) appear uniformly distributed. […]

HeLa cells [3] = test: Toxicity of PTX-loaded carriers, Alamar Blue assay; assay type: cell-based; details: 72 h, 10 μM PTX
Procedure: (§1) Selective delivery of chemotherapeutic drug. To test whether the observed target selectivity would translate into differential cell kill efficiency, the ligand-coated nanogels encapsulating a chemotherapeutic drug molecule, paclitaxel (PTX) were prepared. The PTX-loaded polymeric aggregates (polymer-PTX), NG (NG-PTX) and NG-RGD (NG-RGD-PTX) were added to MCF7 cells and HeLa cells and the extent of cell death was investigated after 72 h. […] This supports the hypothesis that the polymeric micellar aggregates have a leaky nature, which leads to free drug being translocated through the cellular membrane. […] This is consistent with the observed slow internalization of nanogels, which should result in a reduced amount of chemotherapeutic inside the cells.
(§2) Cell culture: The cell viabilities of the nanogels were tested with 293T cells. 293T cells were cultured in T75 cell culture flasks using Dulbecco's Modified Eagle Medium/Nutrient Mixture F-12 (DMEM/F12) with 10% fetal bovine serum (FBS) supplement. […] Cell viability was measured using the Alamar Blue assay with each data point measured in triplicate. Fluorescence measurements were made using the plate reader SpectraMax M5 by setting the excitation wavelength at 560 nm and monitoring emission at 590 nm on a black well plate. […] Cell death was measured by the Alamar Blue assay in triplicate.

MCF7 cells = test: Toxicity of PTX-loaded carriers, Alamar Blue assay; assay type: cell-based; details: MCF7, 72 h, 10 μM PTX
Procedure: as §1, §2

## COc1cccc2c1C(=O)c1c(O)c3c(c(O)c1C2=O)C[C@@](O)(C(=O)CO)C[C@@H]3O[C@H]1C[C@H](N)[C@H](O)[C@H](C)O1 [free Dox, doxorubicin]
MCF-7 cells
  intracellular localization of Dox: significant accumulation in the nucleus

## β-gal: β-galactosidase (pI: 4.8, from E. coli), the model protein
[1]
  hydrodynamic diameter: ~10 nm
HeLa cells [2]
  intracellular delivery of protein alone: not efficient

## CC(=O)O[C@H]1C(=O)[C@@]2(C)[C@H]([C@H](OC(=O)c3ccccc3)[C@]3(O)C[C@H](OC(=O)[C@H](O)[C@@H](NC(=O)c4ccccc4)c4ccccc4)C(C)=C1C3(C)C)[C@]1(OC(C)=O)CO[C@@H]1C[C@@H]2O [free PTX, paclitaxel]
HeLa cells [3]
  toxicity (cell death): highly toxic
MCF7 cells
  toxicity (cell death): highly toxic

## FITC-β-gal: β-gal functionalized with fluorescein
HeLa cells [2]
  intracellular delivery of protein alone: no fluorescence
